Assay results from US10869931B2, “Polyethylene glycol-modified angiogenesis inhibitor HM-1 and application thereof” (NANJING ANJI BIOLOGICAL TECHNOLOGY CO.,LTD, priority 2016, dated 2020).
Marks after values point to notes of the source that are not given here. Where no end group is shown, it is not given here.

Assays:
[1] = system: Breast cancer tumor cells; test: MTT proliferation inhibition, breast cancer cells; format: cell-based, human; parameters: concentration or dose not given beside the values; details: 48 h
Procedure, shortened: (§1)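 Tumour cells plated at 2×10^4 cells/mL, attached overnight, then exposed to dilutions of mPEG-HM-1 for 48 h at 37 °C, 5% CO2. MTT added 4 h, formazan dissolved in DMSO, absorbance 570/630 nm; growth inhibition = 1 − treated/untreated, three independent repeats, mean±SD.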

[2] = system: Human Umbilical Vein Endothelial Cells (HUVEC); test: Transwell migration of HUVEC; format: cell-based; details: 24 h
Procedure, shortened: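 HUVEC (1×10^5/mL in blank medium) seeded with test solutions into Matrigel-coated transwell inserts, lower chamber holding medium with 5% FBS and 1% ECGS, 24 h at 37 °C. Migrated cells crystal-violet stained and counted in four fields; migration inhibition calculated from test versus blank-control counts, three independent repeats.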

[3] = system: Cervical cancer tumor cells; test: MTT proliferation inhibition, cervical cancer cells; format: cell-based, human; parameters: concentration or dose not given beside the values; details: 48 h
Procedure, shortened: as §1

Lung cancer tumor cells = test: MTT proliferation inhibition, lung cancer cells; format: cell-based, human; parameters: concentration or dose not given beside the values; details: 48 h
Procedure, shortened: as §1

[4] = in vivo
[5] = system: Pancreatic cancer tumor cells; test: MTT proliferation inhibition, pancreatic cancer cells; format: cell-based, human; parameters: concentration or dose not given beside the values; details: 48 h
Procedure, shortened: as §1

[6] = system: adjuvant arthritis (AA) SD rats; test: Adjuvant arthritis (AA) rat model; format: in vivo; details: for Joint swelling / Left and right paw swelling / Clinical score: AA SD rats; for Clinical score: maximum score 16
Brain tumor cells = test: MTT proliferation inhibition, brain tumor cells; format: cell-based, human; parameters: concentration or dose not given beside the values; details: 48 h
Procedure, shortened: as §1

[7] = system: retinal neovascular clusters in OIR C57/B16 mice; test: Retinal blood vessels in OIR mice; format: in vivo, mouse; details: for Neovascular clusters area: retina evaluated on day 17; for Inhibition rate: neovascular clusters area vs control, day 17
Procedure, shortened: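 C57/B16 pups and mothers were held in 75% oxygen from postnatal day 7 to 12, then returned to room air. On day 13 the PEGylated HM-1 conjugates or saline were given by intravitreal injection; on day 17 retinal vessels were assessed after intracardiac Texas Red-tomato lectin, circulated 5 min.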

[8] = system: Head and neck cancer tumor cells; test: MTT proliferation inhibition, head and neck cancer cells; format: cell-based, human; parameters: concentration or dose not given beside the values; details: 48 h
Procedure, shortened: as §1

[9] = 80 mg/kg subcutaneous once every three days
[10] = 200 μg intravitreal injection on day 13
[11] = 10 mg/kg subcutaneous once every three days
[12] = 20 mg/kg subcutaneous once every three days
[13] = 40 mg/kg subcutaneous once every three days

Row | Substance | rate of growth inhibition [1] | cell migration number (Mean ± SD) ([2]; 90 μg/mL) | inhibition rate of HUVEC migration ([2]; 90 μg/mL) | cell migration number (Mean ± SD) ([2]; 100 μg/mL) | inhibition rate of HUVEC migration ([2]; 100 μg/mL) | cell migration number (Mean ± SD) ([2]; 110 μg/mL) | inhibition rate of HUVEC migration ([2]; 110 μg/mL) | cell migration number (Mean ± SD) ([2]; 120 μg/mL) | inhibition rate of HUVEC migration ([2]; 120 μg/mL) | rate of growth inhibition [3] | rate of growth inhibition (Lung cancer tumor cells) | AUC0-∞ [4] | CL [4] | MRT0-∞ [4] | T1/2β (half-life) [4] | rate of growth inhibition [5] | Joint swelling [6, 9] | Left and right paw swelling [6, 9] | rate of growth inhibition (Brain tumor cells) | rate of growth inhibition [8] | other results
1 | mPEG-SC40k-Arg-Gly-Ala-Asp-Arg-Ala-Gly-Gly-Gly-Gly-Arg-Gly-Asp ({mPEG‑SC 40 kDa}-RGADRAGGGGRGD) [mPEG-SC40k-HM-1] | 50.12 ± 18.09% | 632.63 ± 58.69 | 40.36%* | 501.84 ± 62.84 | 52.69% | 464.50 ± 48.47 | 56.21% | 542.89 ± 49.29 | 48.82%* | 61.52 ± 15.11% | 51.32 ± 16.29% | 4365.64 ± 11.06 mg/L/h | 0.113 ± 0.0783 mL/min/kg | 16.36 ± 10.28 h | 42.19 ± 0.32 h | 60.45 ± 17.25% | 0.71 ± 0.11 mm | 3.83 ± 0.62 mm | 52.89 ± 15.41% | 43.22 ± 10.25% | Clinical score [6, 9]: 5.88 ± 1.08; Neovascular clusters area [7, 10]: 0.119 ± 0.005 mm^2; Inhibition rate ([7]; 200 μg intravitreal): 46.18%*
2 | mPEG-bALD5k-Arg-Gly-Ala-Asp-Arg-Ala-Gly-Gly-Gly-Gly-Arg-Gly-Asp ({mPEG‑bALD 5 kDa}-RGADRAGGGGRGD) [mPEG-bALD5k-HM-1] | 50.02 ± 10.47% | – | – | – | – | – | – | – | – | 64.52 ± 16.88% | 47.56 ± 12.22% | 4782.29 ± 11.37 mg/L/h | 0.83 ± 0.162 mL/min/kg | 8.46 ± 6.95 h | 9.35 ± 0.12 h | 53.14 ± 10.34% | – | – | 45.11 ± 12.09% | 39.92 ± 11.33% | cell migration number (Mean ± SD) ([2]; 30 μg/mL): 654.96 ± 52.07; inhibition rate of HUVEC migration ([2]; 30 μg/mL): 40.03%*; cell migration number (Mean ± SD) ([2]; 40 μg/mL): 545.96 ± 45.32; inhibition rate of HUVEC migration ([2]; 40 μg/mL): 50.01%; cell migration number (Mean ± SD) ([2]; 50 μg/mL): 489.28 ± 46.98; inhibition rate of HUVEC migration ([2]; 50 μg/mL): 55.20%; cell migration number (Mean ± SD) ([2]; 60 μg/mL): 577.96 ± 58.76; inhibition rate of HUVEC migration ([2]; 60 μg/mL): 47.08%*; Joint swelling [6, 11]: 0.73 ± 0.18 mm; Left and right paw swelling [6, 11]: 3.94 ± 0.65 mm; Clinical score [6, 11]: 5.92 ± 1.11; Neovascular clusters area ([7]; 25 μg intravitreal injection on day 13): 0.108 ± 0.008 mm^2; Inhibition rate ([7]; 25 μg intravitreal): 51.17%**
3 | mPEG-bALD10k-Arg-Gly-Ala-Asp-Arg-Ala-Gly-Gly-Gly-Gly-Arg-Gly-Asp ({mPEG‑bALD 10 kDa}-RGADRAGGGGRGD) [mPEG-bALD10k-HM-1] | 68.15 ± 15.87% | 504.35 ± 48.36 | 53.82%** | 568.57 ± 56.90 | 47.94%* | – | – | – | – | 80.08 ± 18.34% | 66.72 ± 14.42% | 5108.42 ± 9.98 mg/L/h | 0.417 ± 0.175 mL/min/kg | 11.97 ± 8.86 h | 16.83 ± 0.13 h | 75.23 ± 16.41% | – | – | 59.37 ± 14.52% | 49.01 ± 12.14% | cell migration number (Mean ± SD) ([2]; 50 μg/mL): 589.97 ± 56.24; inhibition rate of HUVEC migration ([2]; 50 μg/mL): 45.98%*; cell migration number (Mean ± SD) ([2]; 60 μg/mL): 483.16 ± 50.26; inhibition rate of HUVEC migration ([2]; 60 μg/mL): 55.76%; inhibition rate of HUVEC migration ([2]; 70 μg/mL): 60.38%**; Joint swelling [6, 12]: 0.69 ± 0.13 mm; Left and right paw swelling [6, 12]: 3.73 ± 0.52 mm; Clinical score [6, 12]: 5.40 ± 1.09; in vivo immune protection effect on adjuvant arthritis model (in words) ([6]; AA rats, subcutaneous, once every three days, vs model group): has the most significant effect; Neovascular clusters area ([7]; 50 μg intravitreal injection on day 13): 0.083 ± 0.006 mm^2; Inhibition rate ([7]; 50 μg intravitreal): 62.35%**; inhibition rate of retinal neovascular clusters ([7]; OIR mice, 50 μg intravitreal injection, evaluated day 17): 62.35%
4 | mPEG-bALD20k-Arg-Gly-Ala-Asp-Arg-Ala-Gly-Gly-Gly-Gly-Arg-Gly-Asp ({mPEG‑bALD 20 kDa}-RGADRAGGGGRGD) [mPEG-bALD20k-HM-1] | 60.97 ± 16.29% | – | 53.82% | – | – | – | – | – | – | 78.57 ± 20.11% | 65.31 ± 15.54% | 5872.56 ± 8.72 mg/L/h | 0.212 ± 0.155 mL/min/kg | 18.32 ± 2.99 h | 22.94 ± 0.24 h | 69.54 ± 18.37% | – | – | 54.77 ± 13.43% | 45.13 ± 12.38% | inhibition rate of HUVEC migration ([2]; 80 μg/mL): 55.68%; Joint swelling [6, 13]: 0.77 ± 0.23 mm; Left and right paw swelling [6, 13]: 3.78 ± 0.63 mm; Clinical score [6, 13]: 5.68 ± 1.10; Neovascular clusters area ([7]; 100 μg intravitreal injection on day 13): 0.097 ± 0.011 mm^2; Inhibition rate ([7]; 100 μg intravitreal): 56.22%**
5 | mPEG-bALD40k-Arg-Gly-Ala-Asp-Arg-Ala-Gly-Gly-Gly-Gly-Arg-Gly-Asp ({mPEG‑bALD 40 kDa}-RGADRAGGGGRGD) [mPEG-bALD40k-HM-1] | 62.45 ± 19.04% | 652.01 ± 52.63 | 40.30%* | 523.03 ± 60.52 | 52.11% | 545.63 ± 46.84 | 50.04% | 596.64 ± 50.46 | 45.37%* | 70.34 ± 19.04% | 56.47 ± 14.15% | 5065.72 ± 9.56 mg/L/h | 0.11 ± 0.11 mL/min/kg | 16.75 ± 3.29 h | 43.88 ± 0.20 h | 62.85 ± 18.74% | 0.74 ± 0.18 mm | 3.81 ± 0.62 mm | 51.89 ± 11.91% | 40.09 ± 12.02% | Clinical score [6, 9]: 5.78 ± 1.05; Neovascular clusters area [7, 10]: 0.110 ± 0.012 mm^2; Inhibition rate ([7]; 200 μg intravitreal): 50.31%**
